Measurements as given in publication PMC7664216, “An Odorant Binding Protein (SaveOBP9) Involved in Chemoreception of the Wheat Aphid Sitobion avenae” (International Journal of Molecular Sciences, 2020).
“Also recorded” adds a separate entry of the source. Read-outs that look alike come from different tables or passages of the source.

Key:
SaveOBP9 = SaveOBP9 (Sitobion avenae, UniProt A0A1I9ZLB6); assay: Fluorescence competitive ligand binding assay with probe 1-NPN; conditions: 1-NPN probe
Description: Methanol (spectrophotometric-grade) was used to prepare the standard solution of each tested ligand (Sigma Aldrich, St. Louis, MO, USA). The binding ability of 1-NPN was measured by adding 1-NPN (1 mM) into protein solution (2 μM L^−1) diluted with Tris-HCl (30 mM), and the final concentration was made to 0 to 20 μM L^−1 at room temperature.
The ligand’s binding with SaveOBP9 was conducted with three independent replicates.

Sitobion avenae = assay: Y-tube olfactometer behavioral bioassay; type: in vivo; conditions: for Behavioral response of S. avenae: wingless adults, odor 0.10% (v/v) vs liquid paraffin control, pre-RNAi; for Post-RNAi behavioral response of S. avenae: after 3 days of dsSaveOBP9 feeding (50 ng/µL), compared to dsGFP and Control
Text: Behavioral responses of Sitobion avenae were examined by using a glass Y-tube olfactometer (base = 2.0 cm diameter by 14 cm length, arms = 2.0 cm diameter by 13 cm length) using 7 different volatile compounds (Sigma-Aldrich, St. Louis, MO, USA). Air was passed through the activated charcoal for filtration at the continuous rate of 0.5 L/min and humidified using deionized water followed by the splitting of air between two arms of the olfactometer. One arm contained liquid paraffin (control) and the other had the test ligand. In addition, both chambers were connected to the central arm of the Y-tube. An aliquot of odors and liquid paraffin were loaded on with the concentration of 0.10% (v/v). Aphids were then placed in the trunk. Each insect was allowed 15 min to respond to the treatment, and the numbers of aphids showing attraction, repulsion, or no response were counted. Three replications (20 wingless aphids in each replication) for each group were applied.
Y-tube bioassays were carried out before and after dietary RNAi application to confirm the SaveOBP9 gene-silencing outcome. Two treatments containing liquid paraffin and seven compounds (Ki < 10 μM), 2-ethyl1-hexanol, decanal, tetradecane, hexadecane, octanal, α-farnesene, and hexanal, were used. Three treatments containing Control, dsGFP feeding and dsRNA feeding were tested in behavioral trials after 3 days of feeding. For the post-RNAi bioassays, individuals were tested using the compounds: Tetradecane, octanal, decanal, and hexadecane. These four ligands were carefully chosen based on the observation of significant responses of S.avenae to these compounds in bioassays performed prior to the application of dietary RNAi.

AlinOBP1 = tested on: AlinOBP1; design: method as in PMID 21541988; conditions: cited from earlier work
SaveOBP3 = tested on: SaveOBP3; design: method as in PMID 22306433; conditions: cited from earlier work
Aphis fabae = tested on: Aphis fabae; design: method as in PMID 18584254; conditions: Black bean aphid Aphis fabae; cited from earlier work
SaveOBP2 = tested on: SaveOBP2; design: method as in PMID 22306433; conditions: cited from earlier work
SaveOBP7 = tested on: SaveOBP7; design: method as in PMID 22306433; conditions: cited from earlier work

Chain of SaveOBP9 (A0A1I9ZLB6 entry or part of it): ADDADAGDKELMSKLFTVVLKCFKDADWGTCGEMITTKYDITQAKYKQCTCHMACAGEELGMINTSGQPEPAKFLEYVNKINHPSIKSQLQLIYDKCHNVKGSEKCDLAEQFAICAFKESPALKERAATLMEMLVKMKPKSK

Row | Molecule | IC50 (SaveOBP9; pH 5.0, read-out: IC50) | Ki (SaveOBP9; pH 5.0, read-out: Ki) | IC50 (SaveOBP9; pH 7.4, read-out: IC50) | Ki (SaveOBP9; pH 7.4, read-out: Ki) | IC50 (SaveOBP9; IC50, pH 5.0) | IC50 (SaveOBP9; IC50, pH 7.4) | Ki (SaveOBP9; Ki, pH 5.0) | Ki (SaveOBP9; Ki, pH 7.4) | further results
1 | CC12CCC(CC1=O)C2(C)C (racemic) [(±)-Camphor] | 17.4 µM | 15.7 µM | 48.2 µM | 42.8 µM |  |  |  |  | 
2 | CC1=CCC2C(C1)C2(C)C (single isomer, unassigned; (+)) [(+)-3-Carene] | 39.9 µM | 36.1 µM | 14.7 µM | 13 µM |  |  |  |  | 
3 | C=CC(O)CCCCC (centres unmarked) [1-Octen-3-ol] | 34.2 µM | 30.9 µM | 24.2 µM | 21.5 µM |  |  |  |  | 
4 | CCCCC(CC)CO (centres unmarked) [2-Ethyl-1-hexanol] | 43.8 µM | 39.6 µM | 11.2 µM | 9.93 µM |  |  |  |  | Behavioral response of S. avenae (Sitobion avenae): did not show stimuli; Binding affinity (AlinOBP1): high binding affinity
5 | C=CCCN=C=S [3-Butenyl isothiocyanate] |  |  |  |  | 26.3 µM | 52.7 µM | 23.8 µM | 46.8 µM | 
6 | CC(=O)c1ccccc1 [Acetophenone] | 30.8 µM | 27.8 µM | 13 µM | 11.5 µM |  |  |  |  | 
7 | O=Cc1ccccc1 [Benzaldehyde] |  |  |  |  | 41 µM | 109 µM | 37 µM | 96.5 µM | 
8 | Cc1cc(C(C)(C)C)c(O)c(C(C)(C)C)c1 [Butylated Hydroxytoluene] | 8.8 µM | 7.95 µM | 45.6 µM | 40.5 µM |  |  |  |  | 
9 | CCCCCCCCCC=O [Decanal] | 19.8 µM | 17.9 µM | 9.95 µM | 8.84 µM |  |  |  |  | Post-RNAi behavioral response of S. avenae (Sitobion avenae): non-significant preference; Behavioral response of S. avenae (Sitobion avenae): significantly showed attractive responses; also recorded: strongly attracted S. avenae; Binding ability (SaveOBP3): None of the three SaveOBPs have the ability to bind; EAG response (Aphis fabae): significant electroantennography (EAG) response; Binding ability (SaveOBP2): None of the three SaveOBPs have the ability to bind; Binding ability (SaveOBP7): None of the three SaveOBPs have the ability to bind
10 | CCCCCCCCCCCCCCCC [Hexadecane] | 14.6 µM | 13.2 µM | 10.9 µM | 9.68 µM |  |  |  |  | Post-RNAi behavioral response of S. avenae (Sitobion avenae): non-significant preference; Behavioral response of S. avenae (Sitobion avenae): significantly showed attractive responses; also recorded: strongly attracted S. avenae; Binding ability (SaveOBP3): None of the three SaveOBPs have the ability to bind; Binding ability (SaveOBP2): None of the three SaveOBPs have the ability to bind; Binding ability (SaveOBP7): None of the three SaveOBPs have the ability to bind
11 | CCCCCC=O [Hexanal] |  |  |  |  | 16.8 µM | 8.23 µM | 15.2 µM | 7.31 µM | Behavioral response of S. avenae (Sitobion avenae): did not show stimuli
12 | C=CC(C)(O)CCC=C(C)C (centres unmarked) [Linalool] |  |  |  |  | 11.8 µM | 24.1 µM | 10.7 µM | 21.4 µM | 
13 | COC(=O)c1ccccc1O [Methyl salicylate] |  |  |  |  | 24.2 µM | 13.4 µM | 21.9 µM | 11.9 µM | 
14 | c1ccc2ccccc2c1 [Naphthalene] |  |  |  |  | 30.3 µM | 13 µM | 27.4 µM | 11.5 µM | 
15 | CCCCCCCCC=O [Nonanal] | 12.3 µM | 11.1 µM | 39.8 µM | 35.4 µM |  |  |  |  | 
16 | CCCCCCCC=O [Octanal] | 20.3 µM | 18.3 µM | 8.79 µM | 7.8 µM |  |  |  |  | Post-RNAi behavioral response of S. avenae (Sitobion avenae): non-significant preference; Behavioral response of S. avenae (Sitobion avenae): significantly showed attractive responses; also recorded: strongly attracted S. avenae; Binding ability (SaveOBP3): relatively moderate binding ability; EAG response (Aphis fabae): significant electroantennography (EAG) response; Binding ability (SaveOBP2): relatively moderate binding ability; Binding ability (SaveOBP7): no binding ability

Row | Molecule | IC50 (SaveOBP9; pH 5.0, read-out: IC50) | Ki (SaveOBP9; pH 5.0, read-out: Ki) | IC50 (SaveOBP9; pH 7.4, read-out: IC50) | Ki (SaveOBP9; pH 7.4, read-out: Ki) | IC50 (SaveOBP9; IC50, pH 5.0) | IC50 (SaveOBP9; IC50, pH 7.4) | Ki (SaveOBP9; Ki, pH 5.0) | Ki (SaveOBP9; Ki, pH 7.4) | further results
17 | CCCCCCCCCCCCCCC [Pentadecane] | 15.1 µM | 13.7 µM | 12.8 µM | 11.4 µM |  |  |  |  | 
18 | C=C(C)[C@@H]1CC=C(C)CC1 [S-(−)-Limonene] | 11.5 µM | 10.4 µM | 32.1 µM | 28.5 µM |  |  |  |  | 
19 | CCCCCCCCCCCCCC [Tetradecane] | 11.9 µM | 10.7 µM | 7.96 µM | 7.07 µM |  |  |  |  | Post-RNAi behavioral response of S. avenae (Sitobion avenae): non-significant preference; Behavioral response of S. avenae (Sitobion avenae): significantly showed attractive responses; also recorded: strongly attracted S. avenae
20 | CC/C=C\CCO [cis-3-Hexen-1-ol] |  |  |  |  | 36.9 µM | 13.2 µM | 33.3 µM | 11.8 µM | 
21 | CC/C=C\CCOC(C)=O [cis-3-Hexenyl acetate] |  |  | 29.7 µM | 26.4 µM |  |  |  |  | 
22 | CCC/C=C/C=O [trans-2-Hexen-1-al] |  |  |  |  | 21.6 µM | 41.9 µM | 19.5 µM | 37.2 µM | 
23 | CCC/C=C/CO [trans-2-Hexen-1-ol] |  |  |  |  | 21.7 µM | 14.5 µM | 19.6 µM | 12.9 µM | 
24 | C=CC(=C)CC/C=C(\C)CCC=C(C)C [trans-β-farnesene] |  |  |  |  |  |  |  |  | Binding ability (SaveOBP3): could bind; Binding ability (SaveOBP7): could bind
25 | C=C/C(C)=C/C/C=C(\C)CCC=C(C)C [α-Farnesene] | 9.51 µM | 8.59 µM | 10.3 µM | 9.11 µM |  |  |  |  | Behavioral response of S. avenae (Sitobion avenae): did not show stimuli
26 | CC1=CCC2CC1C2(C)C (stereo not drawn) [α-Pinene] |  |  |  |  | 27.2 µM | 38 µM | 24.6 µM | 33.7 µM | 
27 | CC1=CC[C@@H](C(C)(C)O)CC1 [α-Terpineol] |  |  |  |  | 37.4 µM | 26.2 µM | 33.8 µM | 23.3 µM | 
28 | C=C1CCC2CC1C2(C)C (stereo not drawn) [β -Pinene] |  |  |  |  | 27.7 µM | 37.4 µM | 25.1 µM | 33.2 µM | 
29 | C=C1CC/C=C(\C)CC[C@@H]2[C@@H]1CC2(C)C [β-Caryophyllene] |  |  |  |  | 622 µM | 52.4 µM | 562 µM | 46.6 µM | 
30 | C=CC(=C)CCC=C(C)C [β-Myrcene] | 10.7 µM | 9.67 µM | 12.2 µM | 10.8 µM |  |  |  |  | 
31 | (+)-Limonene oxide | 37.5 µM | 33.9 µM | 24.3 µM | 21.6 µM |  |  |  |  | 
